Test results taken from patent US20240010620A1, “ARYLAZABICYCLO[2.1.1]HEXYLMETHANOLS DERIVATIVES AND MEDICAL USES THEREOF” (ATROGI AB, priority 2020, published 2024).

Key:
L6-myotubes [1] = assay: Glucose uptake in differentiated L6-myotubes (3H-2-deoxy-glucose); assay type: cell-based; conditions: agonist final concentration 1×10^−5, 3H-2-deoxy-glucose uptake
Method: L6-myoblasts were grown in Dulbecco's Modified Eagle's Medium (DMEM) containing 4,5 g/I glucose supplemented with 10% fetal bovine serum, 2 mM L-Glutamine, 50 U/ml penicillin, 50 μg/ml streptomycin and 10 mM HEPES. Cells were plated at 1×10^5 cells per ml in 24-well plates. After reaching 90% confluence the cells were grown in medium containing 2% FBS for 7 days where upon cells differentiated into myotubes. Differentiated L6-myotubes were serum-starved over night in medium containing 0.5% fatty-acid free BSA and stimulated with agonist, final concentration 1×10^−5. After 1 h 40 min cells were washed with warm, glucose free medium or PBS and another portion of agonist was added to glucose free medium. After 20 min the cells were exposed to 50 nM ^3H-2-deoxy-glucose for another 10 min before washed in ice cold glucose free medium or PBS and lysed in 0.2 M NaOH for 1 h in 60° C.

L6-myotubes [2] = assay: Measurement of intracellular cAMP levels (alpha screen cAMP kit); assay type: cell-based; conditions: differentiated cells; agonist final concentration 1×10^−5, 15 min; 1 mM IBMX
Method: L6-myoblasts were grown in Dulbecco's Modified Eagle's Medium (DMEM) containing 4,5 g/I glucose supplemented with 10% fetal bovine serum, 2 mM L-Glutamine, 50 U/ml penicillin, 50 μg/ml streptomycin and 10 mM HEPES. Cells were plated at 1×10^5 cells per ml in 24-well plates. After reaching 90% confluence the cells were grown in medium containing 2% FBS for 7 days where upon cells differentiated into myotubes. Differentiated cells were serum-starved over night and stimulated with agonist, final concentration 1×10^−5, for 15 min in stimulation buffer (HBSS supplemented with 1% BSA, 5 mM HEPES and 1 mM IBMX, pH 7.4) The medium was then aspirated and to end the reaction 100 μL of 95% EtOH was added to each well of a 24-well plate and cells were kept in −20° C. over night. The EtOH was let to evaporate and 500 μL of lysis buffer (1% BSA, 5 mM HEPES and 0.3% Tween-20, pH 7.4) was added to each well before put in −80° C. for 30 min and then kept in −20° C. Intracellular cAMP levels were detected using an alpha screen cAMP kit (6760635D from Perkin Elmer). The activity for each compound is compared to that of isoproterenol.

| Structure (SMILES) | Biological example 1: glucose uptake, activity compared to that of isoproterenol (L6-myotubes [1]) | Biological example 2: intracellular cAMP levels, activity compared to that of isoproterenol (L6-myotubes [2]) |
| --- | --- | --- |
| CC12CC(C1)[C@H]([C@H](O)c1cccc(F)c1)N2.Cl [Example 1, (R)-(3-Fluorophenyl)((R)-1-methyl-2-azabicyclo[2.1.1]hexan-3-yl)methanol hydrochloride] | +++ (activity of more than 75% of that of isoproterenol) | ++ (between 75 and 50%) |
| CC12CC(C1)[C@@H]([C@@H](O)c1cccc(F)c1)N2.Cl [Example 2, (S)-(3-Fluorophenyl)((S)-1-methyl-2-azabicyclo[2.1.1]hexan-3-yl)methanol hydrochloride] | ++ (between 75 and 50%) | − (less than 25%) |
| CC12CC(C1)[C@H]([C@@H](O)c1cccc(F)c1)N2.Cl [Example 3, (S)-(3-Fluorophenyl)((R)-1-methyl-2-azabicyclo[2.1.1]hexan-3-yl)methanol hydrochloride] | + (between 50 and 25%) | − (less than 25%) |
| CC12CC(C1)[C@@H]([C@H](O)c1cccc(F)c1)N2.Cl [Example 4, (R)-(3-Fluorophenyl)((S)-1-methyl-2-azabicyclo[2.1.1]hexan-3-yl)methanol hydrochloride] | − (less than 25%) | − (less than 25%) |
| CC12CC(C1)[C@H]([C@H](O)c1cccc(Cl)c1)N2.Cl [Example 5, (R)-(3-Chlorophenyl)((R)-1-methyl-2-azabicyclo[2.1.1]hexan-3-yl)methanol hydrochloride] | +++ (activity of more than 75% of that of isoproterenol) | − (less than 25%) |
| CC12CC(C1)[C@@H]([C@@H](O)c1cccc(Cl)c1)N2.Cl [Example 6, (S)-(3-Chlorophenyl)((S)-1-methyl-2-azabicyclo[2.1.1]hexan-3-yl)methanol hydrochloride] | + (between 50 and 25%) | − (less than 25%) |
| CC12CC(C1)[C@H]([C@@H](O)c1cccc(Cl)c1)N2.Cl [Example 7, (S)-(3-Chlorophenyl)((R)-1-methyl-2-azabicyclo[2.1.1]hexan-3-yl)methanol hydrochloride] | ++ (between 75 and 50%) | − (less than 25%) |
| CC12CC(C1)[C@@H]([C@H](O)c1cccc(Cl)c1)N2.Cl [Example 8, (R)-(3-Chlorophenyl)((S)-1-methyl-2-azabicyclo[2.1.1]hexan-3-yl)methanol hydrochloride] | + (between 50 and 25%) | − (less than 25%) |
| CC12CC(C1)[C@H]([C@H](O)c1ccccc1F)N2.Cl [Example 9, (R)-(2-Fluorophenyl)((R)-1-methyl-2-azabicyclo[2.1.1]hexan-3-yl)methanol hydrochloride] | +++ (activity of more than 75% of that of isoproterenol) | +++ (activity of more than 75% of that of isoproterenol) |
| CC12CC(C1)[C@@H]([C@@H](O)c1ccccc1F)N2.Cl [Example 10, (S)-(2-Fluorophenyl)((S)-1-methyl-2-azabicyclo[2.1.1]hexan-3-yl)methanol hydrochloride] | +++ (activity of more than 75% of that of isoproterenol) | − (less than 25%) |
| CC12CC(C1)[C@@H]([C@H](O)c1ccccc1F)N2.Cl [Example 12, (R)-(2-Fluorophenyl)((S)-1-methyl-2-azabicyclo[2.1.1]hexan-3-yl)methanol hydrochloride] | +++ (activity of more than 75% of that of isoproterenol) | − (less than 25%) |
| CC12CC(C1)[C@H]([C@H](O)c1cncc(F)c1)N2 [Example 13, (R)-(5-Fluoropyridin-3-yl)((R)-1-methyl-2-azabicyclo[2.1.1]hexan-3-yl)-methanol] | +++ (activity of more than 75% of that of isoproterenol) | − (less than 25%) |
| CC12CC(C1)[C@@H]([C@@H](O)c1cncc(F)c1)N2 [Example 14, (S)-(5-Fluoropyridin-3-yl)((S)-1-methyl-2-azabicyclo[2.1.1]hexan-3-yl)-methanol] | ++ (between 75 and 50%) | − (less than 25%) |
| CC12CC(C1)[C@H]([C@@H](O)c1cncc(F)c1)N2 [Example 15, (S)-(5-Fluoropyridin-3-yl)((R)-1-methyl-2-azabicyclo[2.1.1]hexan-3-yl)-methanol] | − (less than 25%) | − (less than 25%) |
| CC12CC(C1)[C@@H]([C@H](O)c1cncc(F)c1)N2 [Example 16, (R)-(5-Fluoropyridin-3-yl)((S)-1-methyl-2-azabicyclo[2.1.1]hexan-3-yl)-methanol] | + (between 50 and 25%) | − (less than 25%) |
| CC12CC(C1)[C@H]([C@H](O)c1cccc(N)c1F)N2.Cl [Example 17, (R)-(3-Amino-2-fluorophenyl)((R)-1-methyl-2-azabicyclo[2.1.1]hexan-3-yl)methanol hydrochloride] | +++ (activity of more than 75% of that of isoproterenol) | − (less than 25%) |
| CC12CC(C1)[C@@H]([C@@H](O)c1cccc(N)c1F)N2.Cl [Example 18, (S)-(3-Amino-2-fluorophenyl)((S)-1-methyl-2-azabicyclo[2.1.1]hexan-3-yl)methanol hydrochloride] | ++ (between 75 and 50%) | − (less than 25%) |
| CC12CC(C1)[C@H]([C@@H](O)c1cccc(N)c1F)N2.Cl [Example 19, (S)-(3-Amino-2-fluorophenyl)((R)-1-methyl-2-azabicyclo[2.1.1]hexan-3-yl)methanol hydrochloride] | ++ (between 75 and 50%) | − (less than 25%) |
| CC12CC(C1)[C@@H]([C@H](O)c1cccc(N)c1F)N2.Cl [Example 20, (R)-(3-Amino-2-fluorophenyl)((S)-1-methyl-2-azabicyclo[2.1.1]hexan-3-yl)methanol hydrochloride] | ++ (between 75 and 50%) | − (less than 25%) |
